Measurements as given in PMC10174618, “Monoterpenoid aryl hydrocarbon receptor allosteric antagonists protect against ultraviolet skin damage in female mice” (Nature Communications, 2023).

Key:
Test in all cases: biochemical
Design in all cases: KINOMEscan scanMAX active site-directed competition binding assay, percent of control, 468 kinases
Conditions in all cases: competition binding, percent of control
ADCK3 = target: T1, ADCK3 (Homo sapiens, UniProt Q8NI60)
T1 construct: gene COQ8A
Method in brief: (§1)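 KINOMEscan active site-directed competition binding assay against 468 human kinases with 100 μM S-carvone. Binding expressed as % of control, with 35% of control as the inhibition threshold.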

ANKK1 = ANKK1 (Homo sapiens, UniProt Q8NFD2)
Method in brief: as §1

BRSK1 = BRSK1 (Homo sapiens, UniProt Q8TDC3)
Method in brief: as §1

BRSK2 = BRSK2 (Homo sapiens, UniProt Q8IWQ3)
Method in brief: as §1

CDK4-cyclinD1 = target: T2, CDK4-cyclinD1 (Homo sapiens, UniProt P11802)
T2 construct: cyclinD1
Method in brief: as §1

CSK = CSK (Homo sapiens, UniProt P41240)
Method in brief: as §1

DCAMKL1 = target: T3, DCAMKL1 (Homo sapiens, UniProt O15075)
T3 construct: gene DCLK1
Method in brief: as §1

DLK = target: T4, DLK (Homo sapiens, UniProt Q12852)
T4 construct: gene MAP3K12
Method in brief: as §1

EPHB6 = EPHB6 (Homo sapiens, UniProt O15197)
Method in brief: as §1

FLT3(D835V) = FLT3(D835V) (Homo sapiens, UniProt P36888, D835V)
Method in brief: as §1

GRK4 = GRK4 (Homo sapiens, UniProt P32298)
Method in brief: as §1

INSR = INSR (Homo sapiens, UniProt P06213)
Method in brief: as §1

LCK = LCK (Homo sapiens, UniProt P06239)
LCK, sequence (P06239 whole entry): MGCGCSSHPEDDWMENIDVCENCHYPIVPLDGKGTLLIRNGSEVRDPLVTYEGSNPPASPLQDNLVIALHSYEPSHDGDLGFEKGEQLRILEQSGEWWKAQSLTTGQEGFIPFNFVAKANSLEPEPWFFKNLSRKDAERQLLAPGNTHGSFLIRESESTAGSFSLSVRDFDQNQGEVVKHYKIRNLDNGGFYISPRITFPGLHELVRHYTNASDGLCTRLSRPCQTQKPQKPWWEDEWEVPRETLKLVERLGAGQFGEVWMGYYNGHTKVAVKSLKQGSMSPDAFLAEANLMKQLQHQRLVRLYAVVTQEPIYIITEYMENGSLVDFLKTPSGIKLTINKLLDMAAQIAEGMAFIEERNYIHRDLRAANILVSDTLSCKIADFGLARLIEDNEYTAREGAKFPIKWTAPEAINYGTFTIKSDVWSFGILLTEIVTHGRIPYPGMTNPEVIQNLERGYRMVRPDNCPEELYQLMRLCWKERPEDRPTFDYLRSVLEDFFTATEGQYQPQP
Method in brief: as §1

MKNK1 = MKNK1 (Homo sapiens, UniProt Q9BUB5)
MKNK1, sequence (Q9BUB5 whole entry): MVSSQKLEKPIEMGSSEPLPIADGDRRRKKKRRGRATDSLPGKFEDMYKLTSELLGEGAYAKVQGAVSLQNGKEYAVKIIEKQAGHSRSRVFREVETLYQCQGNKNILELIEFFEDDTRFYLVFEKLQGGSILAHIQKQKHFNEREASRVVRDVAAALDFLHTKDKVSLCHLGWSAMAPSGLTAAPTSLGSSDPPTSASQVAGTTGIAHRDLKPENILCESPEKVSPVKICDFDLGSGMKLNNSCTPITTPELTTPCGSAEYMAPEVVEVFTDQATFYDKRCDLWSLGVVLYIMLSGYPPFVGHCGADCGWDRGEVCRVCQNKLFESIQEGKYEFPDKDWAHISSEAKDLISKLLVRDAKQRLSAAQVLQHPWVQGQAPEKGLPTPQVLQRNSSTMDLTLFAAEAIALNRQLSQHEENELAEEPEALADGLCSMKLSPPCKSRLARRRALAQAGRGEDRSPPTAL
Method in brief: as §1

NEK7 = NEK7 (Homo sapiens, UniProt Q8TDX7)
NEK7, sequence (Q8TDX7 whole entry): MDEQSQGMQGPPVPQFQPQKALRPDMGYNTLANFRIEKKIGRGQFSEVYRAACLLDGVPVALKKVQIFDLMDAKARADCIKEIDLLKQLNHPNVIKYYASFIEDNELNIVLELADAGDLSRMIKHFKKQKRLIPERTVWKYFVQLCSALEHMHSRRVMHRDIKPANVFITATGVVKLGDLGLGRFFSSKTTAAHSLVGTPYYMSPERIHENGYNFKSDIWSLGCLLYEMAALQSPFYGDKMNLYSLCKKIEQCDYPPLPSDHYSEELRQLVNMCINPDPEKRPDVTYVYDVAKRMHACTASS
Method in brief: as §1

PIK3CA(Q546K) = PIK3CA(Q546K) (Homo sapiens, UniProt P42336, Q546K)
Method in brief: as §1

PIK3CD = PIK3CD (Homo sapiens, UniProt O00329)
PIK3CD, sequence (O00329 whole entry): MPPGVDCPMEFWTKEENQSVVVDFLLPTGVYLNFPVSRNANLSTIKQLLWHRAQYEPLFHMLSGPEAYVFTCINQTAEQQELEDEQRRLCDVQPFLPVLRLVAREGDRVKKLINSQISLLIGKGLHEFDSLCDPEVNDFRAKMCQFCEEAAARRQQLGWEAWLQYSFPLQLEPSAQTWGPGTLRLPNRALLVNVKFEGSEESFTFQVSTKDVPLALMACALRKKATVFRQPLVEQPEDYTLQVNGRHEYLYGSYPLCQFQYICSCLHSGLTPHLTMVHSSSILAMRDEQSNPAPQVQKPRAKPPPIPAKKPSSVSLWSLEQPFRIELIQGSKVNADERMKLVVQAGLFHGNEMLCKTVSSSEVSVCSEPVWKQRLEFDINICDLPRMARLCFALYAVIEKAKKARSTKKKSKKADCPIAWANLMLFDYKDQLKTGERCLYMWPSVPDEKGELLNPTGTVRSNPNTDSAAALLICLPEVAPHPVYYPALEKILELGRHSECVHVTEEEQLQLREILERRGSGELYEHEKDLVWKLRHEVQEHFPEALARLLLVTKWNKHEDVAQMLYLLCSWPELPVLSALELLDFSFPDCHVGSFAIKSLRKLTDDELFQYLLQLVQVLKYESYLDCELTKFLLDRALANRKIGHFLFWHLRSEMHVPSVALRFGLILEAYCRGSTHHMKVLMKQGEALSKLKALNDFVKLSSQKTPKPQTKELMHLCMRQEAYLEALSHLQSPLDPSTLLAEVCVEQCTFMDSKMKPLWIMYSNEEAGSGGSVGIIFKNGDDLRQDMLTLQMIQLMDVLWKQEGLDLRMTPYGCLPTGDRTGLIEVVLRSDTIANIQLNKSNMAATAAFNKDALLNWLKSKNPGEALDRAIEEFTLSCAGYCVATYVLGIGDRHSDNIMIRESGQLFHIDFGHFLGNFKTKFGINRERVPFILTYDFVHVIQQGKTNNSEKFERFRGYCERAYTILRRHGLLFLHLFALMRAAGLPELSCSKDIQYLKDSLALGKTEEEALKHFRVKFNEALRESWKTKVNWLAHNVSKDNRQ
Method in brief: as §1

PRKCI = PRKCI (Homo sapiens, UniProt P41743)
Method in brief: as §1

PRKCQ = PRKCQ (Homo sapiens, UniProt Q04759)
PRKCQ, sequence (Q04759 whole entry): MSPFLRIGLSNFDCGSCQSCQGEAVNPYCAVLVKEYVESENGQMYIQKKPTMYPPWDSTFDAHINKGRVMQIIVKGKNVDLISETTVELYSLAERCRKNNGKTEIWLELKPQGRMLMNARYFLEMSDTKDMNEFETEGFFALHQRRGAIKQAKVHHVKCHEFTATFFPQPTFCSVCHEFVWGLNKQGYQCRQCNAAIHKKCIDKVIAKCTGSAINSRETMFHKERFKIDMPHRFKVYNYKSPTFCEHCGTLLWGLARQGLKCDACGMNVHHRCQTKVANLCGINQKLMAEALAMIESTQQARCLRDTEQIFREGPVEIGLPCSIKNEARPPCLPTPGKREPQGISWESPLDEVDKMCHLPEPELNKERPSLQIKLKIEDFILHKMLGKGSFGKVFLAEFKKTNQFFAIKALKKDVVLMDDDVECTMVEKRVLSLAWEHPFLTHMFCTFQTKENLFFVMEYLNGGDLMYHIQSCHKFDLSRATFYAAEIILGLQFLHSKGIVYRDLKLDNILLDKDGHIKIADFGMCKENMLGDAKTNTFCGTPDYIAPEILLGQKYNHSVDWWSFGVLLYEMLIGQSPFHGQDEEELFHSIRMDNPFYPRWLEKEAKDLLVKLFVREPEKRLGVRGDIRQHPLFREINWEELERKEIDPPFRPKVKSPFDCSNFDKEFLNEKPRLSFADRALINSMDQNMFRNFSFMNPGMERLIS
Method in brief: as §1

TAK1 = target: T5, TAK1 (Homo sapiens, UniProt O43318)
T5 construct: gene MAP3K7
T5 sequence (O43318 whole entry): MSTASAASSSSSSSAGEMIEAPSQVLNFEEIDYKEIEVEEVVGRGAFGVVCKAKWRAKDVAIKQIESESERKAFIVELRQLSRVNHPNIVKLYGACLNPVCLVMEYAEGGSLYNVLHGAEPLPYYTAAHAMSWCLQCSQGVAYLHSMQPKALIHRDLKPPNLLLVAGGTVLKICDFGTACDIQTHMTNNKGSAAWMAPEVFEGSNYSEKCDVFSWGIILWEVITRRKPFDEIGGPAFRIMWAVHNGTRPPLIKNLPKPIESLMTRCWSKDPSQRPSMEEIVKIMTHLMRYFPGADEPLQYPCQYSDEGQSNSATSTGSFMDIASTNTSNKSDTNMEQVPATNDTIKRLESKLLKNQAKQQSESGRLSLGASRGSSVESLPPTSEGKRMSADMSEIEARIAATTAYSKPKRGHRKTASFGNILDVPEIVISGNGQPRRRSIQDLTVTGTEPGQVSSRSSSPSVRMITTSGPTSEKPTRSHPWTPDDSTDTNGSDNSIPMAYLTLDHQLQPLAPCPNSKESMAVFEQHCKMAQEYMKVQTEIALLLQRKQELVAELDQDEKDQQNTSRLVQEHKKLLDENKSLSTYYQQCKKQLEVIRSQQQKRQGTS
Method in brief: as §1

TGFBR1 = TGFBR1 (Homo sapiens, UniProt P36897)
TGFBR1, sequence (P36897 whole entry): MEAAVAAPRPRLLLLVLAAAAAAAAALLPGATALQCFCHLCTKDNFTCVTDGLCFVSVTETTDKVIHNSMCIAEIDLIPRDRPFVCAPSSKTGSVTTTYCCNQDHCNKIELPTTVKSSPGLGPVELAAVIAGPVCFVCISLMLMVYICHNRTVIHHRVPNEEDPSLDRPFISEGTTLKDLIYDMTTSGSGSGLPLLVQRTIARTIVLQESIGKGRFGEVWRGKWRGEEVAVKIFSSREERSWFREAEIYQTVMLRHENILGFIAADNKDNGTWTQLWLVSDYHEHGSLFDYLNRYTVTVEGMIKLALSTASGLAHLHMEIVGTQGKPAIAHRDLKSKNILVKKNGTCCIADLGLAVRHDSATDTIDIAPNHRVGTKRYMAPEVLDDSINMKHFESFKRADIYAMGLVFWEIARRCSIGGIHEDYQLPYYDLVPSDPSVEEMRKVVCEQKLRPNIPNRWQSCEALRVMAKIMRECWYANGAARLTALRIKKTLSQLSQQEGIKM
Method in brief: as §1

p38-gamma = target: T6, p38-gamma (Homo sapiens, UniProt P53778)
T6 construct: gene MAPK12
Method in brief: as §1

T1 sequence (Q8NI60 whole entry): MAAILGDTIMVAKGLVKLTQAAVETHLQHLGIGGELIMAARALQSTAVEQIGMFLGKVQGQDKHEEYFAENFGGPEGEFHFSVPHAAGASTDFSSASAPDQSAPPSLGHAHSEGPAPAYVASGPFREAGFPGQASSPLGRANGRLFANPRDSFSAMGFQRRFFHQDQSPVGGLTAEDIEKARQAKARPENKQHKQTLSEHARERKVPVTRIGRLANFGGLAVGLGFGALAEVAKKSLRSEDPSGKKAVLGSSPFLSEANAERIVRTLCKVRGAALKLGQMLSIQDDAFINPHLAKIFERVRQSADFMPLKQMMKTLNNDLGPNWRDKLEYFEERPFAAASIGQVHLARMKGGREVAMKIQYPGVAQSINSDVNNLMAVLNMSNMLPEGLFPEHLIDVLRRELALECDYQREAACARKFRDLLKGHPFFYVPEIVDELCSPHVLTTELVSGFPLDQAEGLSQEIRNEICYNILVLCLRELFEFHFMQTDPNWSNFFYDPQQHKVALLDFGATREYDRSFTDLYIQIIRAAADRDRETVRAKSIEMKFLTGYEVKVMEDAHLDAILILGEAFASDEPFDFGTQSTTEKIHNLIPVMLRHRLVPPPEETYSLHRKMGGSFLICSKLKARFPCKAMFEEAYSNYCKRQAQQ

remaining binding at 100 µM (ADCK3): 66% | remaining binding at 100 µM (ANKK1): 91% | remaining binding at 100 µM (BRSK1): 100% | remaining binding at 100 µM (BRSK2): 79% | remaining binding at 100 µM (CDK4-cyclinD1): 73% | remaining binding at 100 µM (CSK): 88% | remaining binding at 100 µM (DCAMKL1): 85% | remaining binding at 100 µM (DLK): 88% | remaining binding at 100 µM (EPHB6): 51% | remaining binding at 100 µM (FLT3(D835V)): 77% | remaining binding at 100 µM (GRK4): 66% | remaining binding at 100 µM (INSR): 68% | remaining binding at 100 µM (LCK): 71% | remaining binding at 100 µM (MKNK1): 62% | remaining binding at 100 µM (NEK7): 74% | remaining binding at 100 µM (PIK3CA(Q546K)): 83% | remaining binding at 100 µM (PIK3CD): 87% | remaining binding at 100 µM (PRKCI): 72% | remaining binding at 100 µM (PRKCQ): 75% | remaining binding at 100 µM (TAK1): 79% | remaining binding at 100 µM (TGFBR1): 100% | remaining binding at 100 µM (p38-gamma): 72%
Compound: C=C(C)[C@H]1CC=C(C)C(=O)C1 [S-carvone]
